A short description of data set [1]: Thermal stability experiments under vacuum, solid phase by PXRD. In kind it is physicochemical. The note with it: 40° C., 1 mbar, different periods of time. As to the method:
Further advantages of polymorphic form R-5 arose from the significant good thermal stability that has shown over time. […] Thermal stability experiments were performed in a Binder Vacuum oven VD53 using the following methodology. Samples of from R-5 of Rufinamide were kept under vacuum, at 40° C. for different periods of times (at 1 mbar), see table 3 below. There were no significant differences in the PXRD patterns of the solids obtained after the thermal treatment.

Data set [2] is described as follows: Grinding experiments in a ball mill, solid phase by PXRD. In kind it is physicochemical. The note with it: with solvent or without solvent. As to the method:
Grinding experiments were performed in a Retsch MM400 Ball Mill using the following methodology: samples of 30 mg of phase R-5 of Rufinamide were grinded at a frequency of 20 s^−1 for 15 min, with a drop of solvent and without solvent.

One compound from US8884026B2, “Process for preparing rufinamide intermediate” (Laboratorios Lesvi, S.L., priority 2010, dated 2014) can be followed below.

With `NC(=O)c1cn(Cc2c(F)cccc2F)nn1` [R-5, 1-(2,6-difluorobenzyl)-1H-1,2,3-triazole-4-carboxamide], the “Change of polymorphic form under accelerated degradation (thermal stability)” value in data set [1] is “No changes in polymorphic form”. Also, the “Change of polymorphic form by grinding” value in data set [2] was “does not change”.
